The source of these data is patent US11780845B2 (Relay Therapeutics, Inc., priority 2019, dated 2023).

In one assay the test system is SNU16 cells. In words: SNU16 Cancer Cell Line Proliferation Assay. It counts as cell-based. As to conditions: Homo sapiens; SNU-16 cells. In a few lines: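 Proliferation read-out: CellTiter Glo chemiluminescence after 96 h compound exposure. Test compounds, serially diluted 3-fold over 11 points from a 10 mM DMSO stock, were added to SNU16 cells plated 24 h earlier at 37 degrees.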

A further assay deals with FGFR2 (Homo sapiens (Human), UniProt P21802). In words: FGFR2 Biochemical Caliper Assay. As to the method:
Compounds of the present invention were also tested in a FGFR2 Biochemical Caliper Assay. Compounds were prepared in 10 mM DMSO solution and serially diluted into 11 concentrations by 3-fold dilution. […] 5 uL of ATP solution (100 uM) was added to start the reaction and the plate was incubated for 90 minutes, then 70 uL of stopping buffer (0.5M EDTA) was added to terminate the reaction. Each well was analyzed using EZ reader.

Sequence of FGFR2 (P21802 22-821): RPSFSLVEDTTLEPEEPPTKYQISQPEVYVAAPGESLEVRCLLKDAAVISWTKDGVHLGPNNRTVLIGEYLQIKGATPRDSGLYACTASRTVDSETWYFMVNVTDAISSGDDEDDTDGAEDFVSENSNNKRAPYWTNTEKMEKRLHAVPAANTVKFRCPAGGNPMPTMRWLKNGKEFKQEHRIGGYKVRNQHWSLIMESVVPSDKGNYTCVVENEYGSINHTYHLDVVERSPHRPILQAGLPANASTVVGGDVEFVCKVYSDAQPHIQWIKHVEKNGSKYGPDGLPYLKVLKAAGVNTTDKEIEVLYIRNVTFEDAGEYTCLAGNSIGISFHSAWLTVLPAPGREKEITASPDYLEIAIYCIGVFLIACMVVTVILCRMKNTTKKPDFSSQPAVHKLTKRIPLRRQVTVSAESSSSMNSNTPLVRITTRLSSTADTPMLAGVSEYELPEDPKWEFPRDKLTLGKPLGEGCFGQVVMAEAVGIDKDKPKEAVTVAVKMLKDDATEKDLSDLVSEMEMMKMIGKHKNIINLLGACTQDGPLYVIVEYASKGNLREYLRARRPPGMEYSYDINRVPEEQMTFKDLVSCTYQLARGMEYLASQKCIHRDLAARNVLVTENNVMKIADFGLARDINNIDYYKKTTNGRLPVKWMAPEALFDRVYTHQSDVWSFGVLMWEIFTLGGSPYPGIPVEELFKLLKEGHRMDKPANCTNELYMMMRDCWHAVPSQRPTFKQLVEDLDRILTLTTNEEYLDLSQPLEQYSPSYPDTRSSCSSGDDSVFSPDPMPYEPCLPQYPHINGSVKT

A word on the IC50: it is the point on the concentration scale where inhibition reaches its midpoint. A higher IC50 goes with a need for much substance. For `C=CC(=O)N1CCC(c2c(-c3ccc(Oc4ccc(Cl)c(C)n4)cc3)c3c(N)ncnc3n2C)C1` (centres unmarked) [Example 745], the IC50 in the assay on SNU16 cells and against FGFR2 was 1 to 100 µM each time.

Regarding `C=CC(=O)N1CCC(c2[nH]c3ncnc(N)c3c2-c2ccc(C(=O)N3CCCC3)cc2)C1` (centres unmarked) [Example 746], the IC50 in the assay on SNU16 cells is 0.25 to 1 µM; on FGFR2 it was less than 0.1 µM.

As to `CC#CC(=O)N1CCC(c2c(-c3ccc(C(=O)N4CCCC4)cc3)c3c(N)ncnc3n2C)C1` (centres unmarked) [Example 747], the 50% inhibitory concentration (IC50) with SNU16 cells was not above 0.1 µM; on FGFR2 it was less than 0.1 µM.

As to `C=CC(=O)N1CCC(c2c(-c3ccc(OCc4ccccc4)cc3)c3c(N)ncnc3n2C)C1` (centres unmarked) [Example 748], the IC50 in the assay with SNU16 cells is 0.25 to 1 µM; against FGFR2, 0.1 to 0.25 µM.

For the compound `C=CC(=O)N1CCC(c2c(-c3ccc(SC4CCCC4)cc3)c3c(N)ncnc3n2C)C1` (centres unmarked) [Example 749], the IC50 in the assay with SNU16 cells is not above 0.1 µM; on FGFR2 it was less than 0.1 µM.

Take `C=CC(=O)N1CCC(c2c(-c3ccc(C(=O)N4CCCCC4)cc3)c3c(N)ncnc3n2C)C1` (centres unmarked) [Example 750]: the IC50 in the assay on SNU16 cells was not above 0.1 µM; against FGFR2, less than 0.1 µM.

Take `C=CC(=O)N1CCC(c2c(-c3ccc(C4CCOCC4)cc3)c3c(N)ncnc3n2C)C1` (centres unmarked) [Example 751]: the IC50 in the assay on SNU16 cells was 0.1 to 0.25 µM; against FGFR2 it was 0.25 to 1 µM.

Regarding `C=CC(=O)N1CCC(c2c(-c3ccc(CN4CCC(C)(C)C4)cc3)c3c(N)ncnc3n2C)C1` (centres unmarked) [Example 753], the IC50 in the assay on SNU16 cells and on FGFR2 was 1 to 100 µM throughout.

Regarding `C=CC(=O)N1CCC(c2c(-c3ccc(NC(=O)NC4CC4)cc3)c3c(N)ncnc3n2C)C1` (centres unmarked) [Example 755], the IC50 in the assay on SNU16 cells is 1 to 100 µM; against FGFR2 it was less than 0.1 µM.

`C=CC(=O)N1CCC(c2c(-c3ccc(OC4CC4)cc3)c3c(N)ncnc3n2C)C1` (centres unmarked) [Example 756]: the IC50 is not above 0.1 µM in the assay on SNU16 cells and 0.1 to 0.25 µM at FGFR2.

In the case of `C=CC(=O)N1CCC(c2c(-c3csc(CN4CCOCC4)c3)c3c(N)ncnc3n2C)C1` (centres unmarked) [Example 757], the IC50 in the assay on SNU16 cells and against FGFR2 was 1 to 100 µM each time.

Take `C=CC(=O)N1CCC(c2c(-c3ccc(OC4CCC4)cc3)c3c(N)ncnc3n2C)C1` (centres unmarked) [Example 758]: the values for the IC50 in the assay with SNU16 cells and against FGFR2 were not above 0.1 µM and less than 0.1 µM, respectively.

Consider `C=CC(=O)N1CCC(c2c(-c3ccc(Oc4ccc(C(F)(F)F)cn4)cc3)c3c(N)ncnc3n2C)C1` (centres unmarked) [Example 759], for which the IC50 with SNU16 cells and against FGFR2 was 0.25 to 1 µM each time.

`C=CC(=O)N1CCC(c2c(-c3ccc(C(=O)c4ccccc4)cc3)c3c(N)ncnc3n2C)C1` (centres unmarked) [Example 760]: the IC50 in the assay on SNU16 cells is not above 0.1 µM; against FGFR2, less than 0.1 µM.

For `C=CC(=O)N1CCC(c2c(-c3ccc(C(=O)C4CC4)cc3)c3c(N)ncnc3n2C)C1` (centres unmarked) [Example 761], the IC50 in the assay on SNU16 cells and on FGFR2 was 0.1 to 0.25 µM throughout.

On to `C=CC(=O)N1CCC(c2c(-c3ccc(C4CCC(=O)N4)cc3)c3c(N)ncnc3n2C)C1` (centres unmarked) [Example 762], for which the IC50 with SNU16 cells and on FGFR2 was 1 to 100 µM each time.

On to `C=CC(=O)N1CCC(c2c(-c3ccc(CN4CCCC4)cc3)c3c(N)ncnc3n2C)C1` (centres unmarked) [Example 763], for which the IC50 in the assay with SNU16 cells and against FGFR2 was 0.25 to 1 µM in each case.

Regarding `C=CC(=O)N1CCC(c2c(-c3ccc(CC(=O)N(C)C)cc3)c3c(N)ncnc3n2C)C1` (centres unmarked) [Example 764], the IC50 in the assay with SNU16 cells and against FGFR2 was 1 to 100 µM throughout.

With `C=CC(=O)N1CCC(c2c(-c3ccc(-c4ncc[nH]4)cc3)c3c(N)ncnc3n2C)C1` (centres unmarked) [Example 765], the results for the half-maximal inhibitory concentration (IC50) in the assay with SNU16 cells and against FGFR2 were 1 to 100 µM and less than 0.1 µM, respectively.

Take `C=CC(=O)N1CCC(c2c(-c3ccc(-c4cnn(C)c4)cc3)c3c(N)ncnc3n2C)C1` (centres unmarked) [Example 766]: the IC50 in the assay on SNU16 cells and at FGFR2 was 0.25 to 1 µM each time.

As for `C=CC(=O)N1CCC(c2c(-c3ccc(-c4noc(C)n4)cc3)c3c(N)ncnc3n2C)C1` (centres unmarked) [Example 767], the IC50 in the assay on SNU16 cells lay in the range of 0.1 to 0.25 µM; at FGFR2, 0.25 to 1 µM.

In the case of `C=CC(=O)N1CCC(c2c(-c3ccc(-c4ccno4)cc3)c3c(N)ncnc3n2C)C1` (centres unmarked) [Example 768], the IC50 in the assay on SNU16 cells is 0.1 to 0.25 µM; against FGFR2 it was 0.25 to 1 µM.

As for `C=CC(=O)Nc1ccc(-c2[nH]c3ncnc(N)c3c2-c2ccc(Oc3cccc(C)n3)cc2)cc1` [Example 769], the values for the IC50 in the assay with SNU16 cells and on FGFR2 were not above 0.1 µM and less than 0.1 µM, respectively.

As to `C=CC(=O)N1CCC(c2c(-c3ccc(NC4CCCC4)cc3)c3c(N)ncnc3n2C)C1` (centres unmarked) [Example 771], the half-inhibitory concentration (IC50) in the assay on SNU16 cells and at FGFR2 was 1 to 100 µM in each case.

For the compound `C=CC(=O)N1CCC(c2c(-c3ccc(Cn4cccn4)cc3)c3c(N)ncnc3n2C)C1` (centres unmarked) [Example 772], the IC50 was not above 0.1 µM in the assay with SNU16 cells and less than 0.1 µM on FGFR2.

Turning to `C=CC(=O)N1CCC(c2c(-c3ccc(NC4CCOCC4)cc3)c3c(N)ncnc3n2C)C1` (centres unmarked) [Example 773], the IC50 in the assay with SNU16 cells and against FGFR2 was 1 to 100 µM in each case.

As to `CC#CC(=O)N1CCC(c2[nH]c3ncnc(N)c3c2-c2ccc(C(=O)N3CCCC3)cc2)C1` (centres unmarked) [Example 774], the IC50 with SNU16 cells and against FGFR2 was 1 to 100 µM throughout.

Take `C=CC(=O)N1CCC(c2[nH]c3ncnc(N)c3c2-c2ccc(Oc3ccc(C)cn3)cc2)C1` (centres unmarked) [Example 775]: the IC50 with SNU16 cells was in the range of 1 to 100 µM; against FGFR2, 0.1 to 0.25 µM.

As to `C=CC(=O)N1CCC(c2c(-c3ccc(Cn4ccc(C)n4)cc3)c3c(N)ncnc3n2C)C1` (centres unmarked) [Example 776], the figures for the IC50 in the assay with SNU16 cells and at FGFR2 were not above 0.1 µM and less than 0.1 µM, respectively.

Turning to `C=CC(=O)N(C)c1ccc(-c2[nH]c3ncnc(N)c3c2-c2ccc(Oc3cccc(C)n3)cc2)cc1` [Example 777], the IC50 in the assay on SNU16 cells and at FGFR2 was 1 to 100 µM each time.

Regarding `C=CC(=O)N1CCC(c2c(-c3cnn(-c4cccnc4)c3)c3c(N)ncnc3n2C)C1` (centres unmarked) [Example 778], the IC50 with SNU16 cells was not above 0.1 µM; against FGFR2 it was less than 0.1 µM.

In the case of `C=CC(=O)N1CCC(c2c(-c3cnn(-c4ccccn4)c3)c3c(N)ncnc3n2C)C1` (centres unmarked) [Example 779], the IC50 in the assay on SNU16 cells and on FGFR2 was 1 to 100 µM each time.

In the case of `C=CC(=O)N1CCC(c2c(-c3cnn(CC4CCN(C(C)=O)CC4)c3)c3c(N)ncnc3n2C)C1` (centres unmarked) [Example 780], the IC50 in the assay on SNU16 cells and against FGFR2 was 0.25 to 1 µM in each case.

For the compound `C=CC(=O)N1CCC(c2c(C3=CCC(CO)CC3)c3c(N)ncnc3n2C)C1` (centres unmarked) [Example 781], the IC50 with SNU16 cells and on FGFR2 was 1 to 100 µM in each case.

For `C=CC(=O)N1CCC(c2c(-c3ccc(OC4CNC4)cc3)c3c(N)ncnc3n2C)C1` (centres unmarked) [Example 782], the IC50 with SNU16 cells and against FGFR2 was 1 to 100 µM in each case.

Take `C=CC(=O)N1CCC(c2c(C3=CCN(C(C)=O)CC3(C)C)c3c(N)ncnc3n2C)C1` (centres unmarked) [Example 783]: the IC50 in the assay with SNU16 cells was in the range of 1 to 100 µM; at FGFR2, 0.1 to 0.25 µM.

As to `C=CC(=O)N1CCC(c2c(-c3ccc(C(=O)C4CCCC4)cc3)c3c(N)ncnc3n2C)C1` (centres unmarked) [Example 784], the IC50 with SNU16 cells and on FGFR2 was 1 to 100 µM each time.

Consider `C=CC(=O)N1CCC(c2c(-c3ccc(S(=O)(=O)C4CC4)cc3)c3c(N)ncnc3n2C)C1` (centres unmarked) [Example 785], for which the IC50 was not above 0.1 µM in the assay on SNU16 cells and less than 0.1 µM on FGFR2.

Consider `C=CC(=O)Nc1ccc(-c2[nH]c3ncnc(N)c3c2-c2ccc(C(=O)N3CCCC3)cc2)cc1` [Example 786], for which the IC50 in the assay with SNU16 cells lay in the range of 1 to 100 µM; against FGFR2, 0.25 to 1 µM.

On to `CC#CC(=O)Nc1ccc(-c2[nH]c3ncnc(N)c3c2-c2ccc(Oc3cccc(C)n3)c(OC)c2)cc1` [Example 787], for which the IC50 was not above 0.1 µM in the assay on SNU16 cells and less than 0.1 µM against FGFR2.
